For assay [1], the target named is T1, Recombinant human prolyl oligopeptidase (Homo sapiens, UniProt P48147).
T1 construct: made in house; host or cells: E. coli
T1 sequence (P48147 1-710): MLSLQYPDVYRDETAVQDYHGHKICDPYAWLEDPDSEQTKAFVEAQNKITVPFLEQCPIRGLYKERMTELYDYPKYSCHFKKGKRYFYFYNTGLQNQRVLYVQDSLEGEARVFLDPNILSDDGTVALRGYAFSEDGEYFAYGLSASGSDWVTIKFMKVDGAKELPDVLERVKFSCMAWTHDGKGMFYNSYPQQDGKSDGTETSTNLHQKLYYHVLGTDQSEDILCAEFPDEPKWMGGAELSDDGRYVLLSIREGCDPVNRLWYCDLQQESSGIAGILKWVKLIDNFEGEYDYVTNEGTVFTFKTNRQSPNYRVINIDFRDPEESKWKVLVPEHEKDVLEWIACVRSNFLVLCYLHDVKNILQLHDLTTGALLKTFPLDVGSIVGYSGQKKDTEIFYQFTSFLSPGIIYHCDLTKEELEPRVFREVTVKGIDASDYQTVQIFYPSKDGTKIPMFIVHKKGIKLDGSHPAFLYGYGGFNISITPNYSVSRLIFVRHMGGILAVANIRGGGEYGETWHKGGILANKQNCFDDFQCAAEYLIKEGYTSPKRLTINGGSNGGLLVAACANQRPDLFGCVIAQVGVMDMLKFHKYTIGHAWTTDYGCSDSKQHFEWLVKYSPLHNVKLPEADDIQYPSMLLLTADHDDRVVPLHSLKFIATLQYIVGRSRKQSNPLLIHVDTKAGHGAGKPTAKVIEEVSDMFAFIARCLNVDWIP
Nature of the assay: Determination of IC50- and Ki-values of PEP-inhibitors (chromogenic substrate Z-Gly-Pro-pNA). The conditions noted are these: substrate Z-Gly-Pro-pNA 0.15 mM, HEPES buffer pH 7.6, 30° C.; n.i. = no inhibition. Type of assay: biochemical. As to the method: Biological Evaluation, Determination of IC50- and Ki-Values of PEP-Inhibitors
Recombinant human prolyl oligopeptidase was used for measurement. Recombinant expression was performed in E. coli under standard conditions as described elsewhere in the state of the art.
For activity measurements the chromogenic substrate Z-Gly-Pro-pNA was used in HEPES buffer pH 7.6 containing 50 mM HEPES, 200 mM NaCl, 1 mM EDTA, 1 mM DTT, 0.006% Brij35. Measurements were carried out at 30° C. Release of pNA were monitored continuously at 405 nm.
IC50 values were calculated using non-linear regression to a 4-parameter equation (Prism 4.0, GraphPad).
For Ki determination 4 substrate (0.15 mM, 0.08 mM 0.04 mM, 0.02 mM) and 7 inhibitor concentrations in an appropriate range were used. Calculations were performed by multiple non-linear regression analysis to the equation for competitive inhibition using GraFit 5.0 Software (Erithacus Software).

A further assay concerns human glial U-343 cells. Put plainly: IL-6 ELISA, basal secretion of IL-6. Type of assay: cell-based. The conditions noted are these: inhibitor 20 μM, 24 hours, serum-free medium, untreated control = 100%, read-out: Extracellular IL-6 concentration, % of untreated cells. How it is done:
To analyze basal secretion of IL-6, human glial U-343 cells were cultured in 6 well plates (1.5×10^6 cells/well, Greiner) and treated with specific PEP inhibitors as indicated (20 μM each) for 24 hours in serum-free D-MEM medium (invitrogen). Aliquots of 40 μl conditioned medium were used to quantify the amount of secreted IL-6 by an human-specific IL-6 ELISA (Biosource) following the manufacturer's instructions. All data were obtained in quadruplicate. For the calculation of the IL-6 concentration in the cell culture medium after PEP-inhibitor treatment, the basal IL-6 concentration of the cell culture medium of untreated cell samples was set to 100%. The results of the measurement of the IL-6 concentration with PEP-inhibitor treated cells are presented as % of the untreated cell samples.
(In general: ELISA stands for enzyme-linked immunosorbent assay.)

In the next assay the test system is U-343 and SH-SY5Y cells. Put plainly: β-Amyloid ELISA, secreted β-amyloid peptides 1-40 and 1-42. Type of assay: cell-based. The conditions noted are these: Homo sapiens, inhibitor 20 μM, 24 hours, conditioned medium, untreated cells = 100%, cell line and peptide (1-40/1-42) not given, read-out: Extracellular Aβ-concentration, % of control. As to the method: The human glioma cell line, U-343 and the human neuroblastoma cell line, SH-SY5Y were maintained in Dulbecco's modified Eagle's medium (DMEM) containing 10% fetal bovine serum (Gibco BRL, Karlsruhe, Germany) and incubated at 37° C. in a 5% CO2 atmosphere. Culture media contained in general 60 μg/ml gentamycin (Gibco BRL, Karlsruhe, Germany).
To quantify intracellular and extracellular concentrations of 0-amyloid peptides, 1-40 and 1-42, U-343 and SH-SY5Y cells were cultured in 6 well plates (1.5×10^6 cells/well) and treated with specific PEP inhibitors (20 μM each) for 24 hours. For quantitation of secreted β-amyloid peptides the conditioned medium was collected and concentrated by lyophylisation. Likewise, after determination of the cell numbers/well (casy cell counter I, Schärfe System, Reutlingen, Germany), cells were lyzed with cell extraction buffer (Biosource, Solingen, Germany) according to the manufacturer's protocol. The protein concentration was determined by the method of Bradford (1976). Aliquots of 100 μl were used to quantify β-amyloid peptides 1-40 and 1-42 in quadruplicate by ELISA (IBL, Hamburg, Germany) following the manufacturer's instructions. All obtained intracellular and extracellular concentrations were normalized to cell numbers and protein concentration, respectively.
For the calculation of the concentration of β-amyloid peptides 1-40 and 1-42 in the cell culture medium after PEP-inhibitor treatment, the basal concentration of β-amyloid peptides 1-40 and 1-42 in the cell culture medium of untreated cell samples was set to 100%. The results of the measurement of the concentration of β-amyloid peptides 1-40 and 1-42 with PEP-inhibitor treated cells are presented as % of the untreated cell samples.

In the case of `O=C(OCN1C(=O)c2ccccc2C1=O)c1ccccc1C(=O)c1cccs1` [Example 9], the IC50 result in assay [1] is on record as “n.i”. Besides, the activity at 20 µM in the assay with human glial U-343 cells turned out to be 124%; in the assay with U-343 and SH-SY5Y cells it was 113%.
Regarding `COc1cccc(COC(=O)c2ccccc2C(=O)c2cccs2)c1` [Example 18], in assay [1], the IC50 entry is “n.i”. Also, the activity at 20 µM in the assay with human glial U-343 cells is 63.3%; in the assay with U-343 and SH-SY5Y cells, 106%.

The record behind these values is patent publication US7592467B2, “Inhibitors of prolyl endopeptidase” (Probiodrug AG, priority 2005, dated 2009).
